Target: Complement factor D (Homo sapiens, UniProt P00746)
Assay: Inhibition Assay: Human Factor D (purified from human serum, Complement Technology, Inc.) at 80 nM final concentration was incubated with test compound at various concentrations for 5 minutes at room temperature in 50 mM Tris, 1M NaCl, pH 7.5. A synthetic substrate Z-L-Lys-SBzl and DTNB (Ellman's reagent) are added to final concentrations of 100 Î¼M each. […] IC50 values are calculated by nonlinear regression of complement Factor D reaction rates as a function of test compound concentration.

Complement factor D, sequence (P00746 whole entry): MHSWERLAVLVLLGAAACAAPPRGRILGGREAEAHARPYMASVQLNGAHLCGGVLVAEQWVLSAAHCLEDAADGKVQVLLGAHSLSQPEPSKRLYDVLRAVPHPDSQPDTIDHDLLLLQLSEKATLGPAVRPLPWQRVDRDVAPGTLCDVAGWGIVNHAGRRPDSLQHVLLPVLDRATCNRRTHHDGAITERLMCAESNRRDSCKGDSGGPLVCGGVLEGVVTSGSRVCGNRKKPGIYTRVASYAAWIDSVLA

CC(=O)c1nn(CC(=O)N2[C@H](C(=O)N[C@H](C)[C@H]3CC3(Cl)Cl)C[C@@]3(C)C[C@@H]23)c2ccc(-c3cnc(C)nc3)cc12
IC50: < 1000 nM
